Data taken from patent US20200140483A1, “USE OF Y PEPTIDE IN PREPARATION OF DRUG OR HEALTHCARE PRODUCT FOR LOWERING BLOOD PRESSURE” (priority 2017, published 2020).
Residues, ends and D or L forms follow the SMILES beside them.

Tested on: SHR rats
Type: in vivo, rat
Description: Each group was intragastrically administrated a solution of a corresponding tested substance or ultrapure water, in a volume of 10 mL/kg body weight, once per day for 30 consecutive days. The blood pressure and heart rates of the animals were measured during the administration of the tested substance. The blood pressure was measured with an LE5002 noninvasive blood pressure meter.

N[C@@H](Cc1ccc(O)cc1)C(=O)N[C@@H](Cc1ccc(O)cc1)C(=O)O [YY-peptide] (H-Tyr-Tyr-OH; N-terminus and C-terminus assumed)
blood pressure (SHR rats, 10 mg/kg intragastric once per day, 7th day, model control 161±6): 157±7
effect in lowering blood pressure (SHR rats, 10 mg/kg, 7th day): significant effect in lowering blood pressure
effect on body weight (rat, in vivo, 10 mg/kg): no obvious effect
effect on heart rates (rat, in vivo, 10 mg/kg): no obvious effect
